Data set [1] deals with E17.5 hippocampal neurons. Put plainly: Cellular viability of neurons exposed to NaBt. It is filed as cell-based. Particulars: 2 mM NaBt.
The subject of data set [2] is ependymal cells of the choroid plexus. As to the kind of experiment: In vivo mitochondrial mass of choroid plexus (SOD2 immunohistochemistry). To be noted: NaBt intraperitoneally in E12.5 pregnant dams, brains at E17.5, vs sham. More on the design: species or system mice. An excerpt: FIG. 8 is a schematic and image from microscopy showing that NaBt increases in vivo the mitochondrial mass of ependymal cells of the choroid plexus.
NaBt increases in vivo the mitochondrial mass of ependymal cells of the choroid plexus. NaBt's effect on mitochondrial mass of ependymal cells from the choroid plexus was investigated. It is a highly vascularized tissue lining the brain ventricles, which is responsible for producing and secreting the cerebral spinal fluid (CSF) and for supplying growth factors and key ions to the developing and mature brain ([…]). The secretory functions of the ependymal cells are highly dependent of mitochondria to ensure active transports of small ions, water and growth factors from the blood side to the CSF side. Impairment of mitochondrial functions in the choroid plexus has been documented in neurodegenerative diseases, such as Alzheimer's disease. To test the effect of NaBt in the choroid plexus of the murine developing brain, NaBt was injected intraperitoneally in E12.5 pregnant dams before dissected the brains at E17.5. Immunohistochemistry was performed on E17.5 sectioned brains to analyze the mitochondrial mass using an antibody against the mitochondrial marker SOD2.

In another data set the test system is neuronal cells. As to the kind of experiment: Mitochondrial membrane potential (TMRM dye, confocal microscopy and flow cytometry). It is filed as cell-based. Particulars: NaBt-treated cells. As for the experimental part:
FIG. 9A-9C are graphs and images from microscopy showing that NaBt enhances mitochondrial bioenergetics. (A) Flow cytometric analysis of Δψm; *p<0.001. (B) ATP levels in live cells using a Mg^2+-based assay; *p<0.001. (C) Electron microscopy of mitochondria in control and NaBt-treated cells; scale bar=200 nm.
NaBt increases mitochondrial membrane potential (Δψm) and ATP levels. The MTR-based data raised the question: could NaBt also enhance mitochondrial bioenergetics? Δψm was assessed by live cell confocal microscopy and flow cytometry using the TMRM dye, which accumulates in the mitochondrial matrix in a Δψm-dependent fashion. A 1.5-fold increase in Δψm in NaBt-treated cells was observed (FIG. 9A). To test whether enhanced Δψm led to increased ATP output, ATP levels were monitored using the live cell Mg^2+-based ATP assay, which is compatible with the TMRM dye, allowing simultaneous recordings. A 1.6-fold increase in ATP levels in NaBt-treated cells was observed (FIG. 9B), in line with the MTR- and TMRM-based findings and the elongated mitochondrial morphology.

Data set [3] deals with PC12-ND6 cells. Put plainly: ROS (superoxide anions) by MitoSOX live cell confocal microscopy. In kind it is cell-based. To be noted: NaBt 5 mM, three days. As for the experimental part:
PC12-ND6 cells were grown in the absence or presence of NaBt (5 mM) for three days before being labeled with the MitoSox™ dye and the nuclear counterstain Hoechst 33342 and analyzed by live cell confocal imaging. Images are representative of three independent experiments. Scale bar represents 10 μm.
On the basis that increased ΔΨm could result in elevated ROS levels due to electron leakage through the mitochondrial electron transfer chain (ETC), the relative levels of superoxide anions (O2^−) were measured by live cell confocal microscopy using the redox-sensitive fluorogenic live-cell permeant dye MitoSOX™, as described in Uittenbogaard et al., 2010b.

A further data set concerns NRF-1. As to the kind of experiment: Quantitative immunoblot analysis of NRF-1. Particulars: NaBt treatment, PC12-ND6. It is filed as cell-based. An excerpt: FIG. 11A-11D are images from microscopy and graphs showing NaBt promotes mtDNA replication via the NRF-1/Tfam axis. (A) Confocal analysis of mtDNA foci; scale bar=5 (B) Quantitative analysis of mtDNA copy number by PCR; *p<0.001. (C, D) Quantitative immunoblot analysis of NRF-1 and Tfam; *p<0.001.
NaBt enhances mtDNA replication via the PGC1α-mediated NRF-1/Tfam axis. It was investigated whether NaBt enhanced mtDNA replication using the PicoGreen® dye to label mtDNA. PC12-ND6 cells were transfected with the mito-dsRed vector prior to NaBt treatment followed by PicoGreen® staining. […] To corroborate enhanced mitochondrial biogenesis, two key target genes of PGC1α were examined, the NRF-1 transcription factor and its direct target gene Tfam, both essential for mitochondrial biogenesis. […] The findings confirm the NaBt-mediated modulation of mitochondrial biogenesis and mtDNA replication in neuronal cells.
(A western blot detects proteins with antibodies after separation by electrophoresis.)

Data set [4] concerns PC12-ND6 cells. Put plainly: Mitochondrial mass under chloramphenicol (mito-GFP live-cell confocal microscopy). It is filed as cell-based. To be noted: NaBt prior to chloramphenicol, up to highest concentration. An excerpt:
FIG. 14A-14E are images from microscopy showing that pre-treatment of PC12-ND6 cells with NaBt prevents chloramphenicol-mediated decrease of mitochondrial mass. (A) Graph of PC12-ND6 cell death upon exposure to different concentrations of chloramphenicol (Cm). Percent of cell death±SEM (n=250 cells). (B) Quantitative immunoblot analysis of mitochondrial-encoded MT-CO1 protein (green) and nuclear-encoded SDH-A protein (red) in Cm-treated PC12-ND6 cells. (C) Graph of MT-CO1/SDH-A ratio normalized to untreated PC12-ND6 cells. Mean±SEM (n=3; compared to untreated cells *p=0.0052, **p=0.0048, and ***p=0.0034). (D) Confocal micrographs of untreated and Cm-treated PC12-ND6 cells transfected with the vector mito-GFP. Scale bar represents 5 μm. (E) Confocal micrographs of NaBt pre-treated PC12-ND6 cells transfected with the vector mito-GFP and exposed to Cm. Scale bar represents 5 μm.
The efficacy of chloramphenicol treatment was determined by simultaneously examining the expression levels of the nuclear-encoded succinate dehydrogenase (SDH-A) subunit of Complex II and the mitochondrial-encoded subunit I of Complex IV (MT-COI) using a quantitative immunoblot approach. […] The effect of chloramphenicol on mitochondrial mass by live-cell confocal microscopy using PC12-ND6 cells transfected with the vector mito-GFP was confirmed.

Data set [5] relates to healthy and MELAS fibroblasts. As to the kind of experiment: Dose-dependent studies for optimal safe concentrations. It is filed as cell-based, human. Particulars: three days of treatment. An excerpt: Experimental approaches. Five distinct molecular tools were used to investigate mitochondrial biogenesis: 1) the mitochondrial-specific dyes, MitoTracker® Green (MTG) and MitoTracker® Red (MTR); 2) the mito-GFP or mito-dsRed vector to fluorescently label mitochondria; 3) antibodies against mtDNA, COXVα, or SOD2; 4) the fluorescent PicoGreen® dye labeling mtDNA; and 5) quantitative PCR to determine mtDNA copy number.
Butyrates rescue the mitochondrial mass, morphology, networking, membrane potential, and cellular ATP levels in MELAS fibroblasts. Skin fibroblasts from two MELAS patients and from a healthy subject as a control were used. Dose-dependent analyses of butyrates to determine their best concentrations for eliciting an optimal mitochondrial response without cellular toxicity was performed. Healthy and MELAS fibroblasts were treated with PBS, NaBt (2.5 mM), TBN (1.5 mM), or AN9 (300 μM) for three days before labeling with the MTG dye for live cell confocal analysis.

The structures appear in SMILES notation. “Also recorded” adds a separate entry of the source.

The values below come from patent publication US10272056B2, “Treatment for mitochondrial diseases” (The George Washington University a Congressionally …, priority 2015, dated 2019).

For `CCCC(=O)[O-].[Na+]` [NaBt, sodium butyrate], the cellular viability entry in data set [1] is reported as “without affecting cellular viability”. In addition, the “mitochondrial mass of ependymal cells of the choroid plexus” value in data set [2] was “substantial increase”. Further, the “increase in Δψm” value in the data set with neuronal cells stood at 1.5 fold. For the same compound, the ROS production result in the data set with PC12-ND6 cells [3] was “does not trigger ROS generation; also recorded: failed to generate ROS production”. The NRF-1 expression entry in the data set with NRF-1 is listed as “increased on day 1”. The “mitochondrial biomass with NaBt pre-treatment” value in the data set on PC12-ND6 cells [4] was “sustain their mitochondrial biomass”. Besides, the “optimal safe concentration for eliciting maximal mitochondrial biogenesis without cellular toxicity” value in data set [5] was 2.5 mM.
